# Reference: patent publication US20240018161A1, “MODULATORS OF CYSTIC FIBROSIS TRANSMEMBRANE CONDUCTANCE REGULATOR” (VERTEX PHARMACEUTICALS INCORPORATED, priority 2020, published 2024)
# pEC50: −log10 of the molar value. Where two headings read alike, the source gives them in different places.
# Target: CFTR-mediated chloride transport in human intestinal epithelial enteroid cells (Homo sapiens, UniProt P13569)
# Test: Membrane potential dye, Enteroid Assay A
# Type: cell-based
# Conditions: for pEC50: read-out: Ent. A EC50
# Outline: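 Membrane potential dye (20 μM methyl oxonol, with 30 μM CaCCinh-A01 and 30 μM Chicago Sky Blue) loaded 25 min at room temperature into ROCK-inhibitor-seeded human enteroid cells. Chloride-free stimulation buffer triggered transport, followed by 15 min fluorescence. % Activity relative to 3 μM/3 μM/300 nM triple-combination control.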
# [1] = enteroid cells incubated with test compound 18-24 hours, acute 10 μM forskolin and 300 nM N-[2,4-bis(1,1-dimethylethyl)-5-hydroxyphenyl]-1,4-dihydro-4-oxoquinoline-3-carboxamide
# [2] = percentage of chloride transport of triple combination control (3 μM N-[(6-amino-2-pyridyl)sulfonyl]-6-(3-fluoro-5-isobutoxy-phenyl)-2-[(4S)-2,2,4-trimethylpyrrolidin-1-yl]pyridine-3-carboxamide based)
# CFTR-mediated chloride transport in human intestinal epithelial enteroid cells, sequence (P13569 with tags, fused parts or gaps DEL508-508): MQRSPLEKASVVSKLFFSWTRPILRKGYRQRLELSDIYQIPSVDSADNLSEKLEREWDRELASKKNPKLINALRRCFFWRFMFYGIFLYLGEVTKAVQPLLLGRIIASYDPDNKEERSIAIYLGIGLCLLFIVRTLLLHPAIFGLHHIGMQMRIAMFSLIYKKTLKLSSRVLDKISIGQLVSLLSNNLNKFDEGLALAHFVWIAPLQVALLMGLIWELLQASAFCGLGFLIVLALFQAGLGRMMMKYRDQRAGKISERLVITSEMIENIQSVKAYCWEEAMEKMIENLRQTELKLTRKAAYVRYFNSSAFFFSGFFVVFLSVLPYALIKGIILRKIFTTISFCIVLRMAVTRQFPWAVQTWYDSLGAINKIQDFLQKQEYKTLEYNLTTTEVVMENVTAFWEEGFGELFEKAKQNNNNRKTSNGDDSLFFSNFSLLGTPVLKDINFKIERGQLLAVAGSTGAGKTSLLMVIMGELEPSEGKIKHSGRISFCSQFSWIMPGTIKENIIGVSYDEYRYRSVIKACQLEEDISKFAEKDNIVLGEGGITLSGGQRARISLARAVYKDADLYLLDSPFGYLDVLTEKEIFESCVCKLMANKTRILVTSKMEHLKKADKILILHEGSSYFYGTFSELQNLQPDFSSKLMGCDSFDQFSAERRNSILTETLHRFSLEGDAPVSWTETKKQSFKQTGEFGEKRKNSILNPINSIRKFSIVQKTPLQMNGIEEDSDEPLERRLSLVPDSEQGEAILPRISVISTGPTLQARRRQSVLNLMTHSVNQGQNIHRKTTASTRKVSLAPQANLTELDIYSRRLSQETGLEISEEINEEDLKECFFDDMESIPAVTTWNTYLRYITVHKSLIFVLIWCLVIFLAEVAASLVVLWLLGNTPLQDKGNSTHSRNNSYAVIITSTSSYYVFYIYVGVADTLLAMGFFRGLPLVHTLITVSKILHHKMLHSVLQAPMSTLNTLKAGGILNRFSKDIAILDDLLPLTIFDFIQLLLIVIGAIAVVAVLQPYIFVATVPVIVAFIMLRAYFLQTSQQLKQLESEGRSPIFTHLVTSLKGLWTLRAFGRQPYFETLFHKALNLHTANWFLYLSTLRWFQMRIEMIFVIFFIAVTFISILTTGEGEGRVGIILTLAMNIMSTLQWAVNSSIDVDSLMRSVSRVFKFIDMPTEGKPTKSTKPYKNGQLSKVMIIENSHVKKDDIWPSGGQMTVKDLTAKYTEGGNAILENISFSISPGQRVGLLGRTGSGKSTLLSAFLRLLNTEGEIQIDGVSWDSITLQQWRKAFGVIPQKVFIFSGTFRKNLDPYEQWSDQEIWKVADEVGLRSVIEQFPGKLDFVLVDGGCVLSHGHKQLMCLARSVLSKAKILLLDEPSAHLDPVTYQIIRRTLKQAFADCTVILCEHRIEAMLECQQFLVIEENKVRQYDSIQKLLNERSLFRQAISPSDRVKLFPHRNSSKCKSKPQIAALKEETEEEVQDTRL
Compound,Ent. A Max Activity (%) (Enteroid Assay A),pEC50 (Enteroid Assay A),Ent. A Max Activity (%),pEC50 [1],Ent. A Max Activity (%) [2]
Cc1cccc(C)c1-c1cc2nc(n1)NS(=O)(=O)c1cccc(c1)C(=O)N1C[C@@H](CN(CC(C)(C)C)[C@@H](CC(C)C)C1)O2 [Compound 154],+++ (+++ is >600%),> 6.00,–,–,–
Cc1cccc(C)c1-c1cc2nc(n1)NS(=O)(=O)c1cccc(c1)C(=O)N1CCN(CCC(C)(C)C)C[C@H](O2)[C@H]1CC(C)C [Compound 157],+++ (+++ is >600%),> 6.00,–,–,–
Cc1cccc(C)c1-c1cc2nc(n1)NS(=O)(=O)c1cccc(c1)C(=O)N1CCN(C3CCC(F)(F)CC3)C[C@@H](O2)[C@H]1CC(C)C [Compound 158],–,–,+++ (key: +++ is >600%; ++ is 30-60%; + is <30%),–,–
Cc1cccc(C)c1-c1cc2nc(n1)NS(=O)(=O)c1cccc(c1)C(=O)N1CCN(CCC(C)(C)C)C[C@@H](O2)[C@H]1CC(C)C [Compound 159],+++ (+++ is >600%),> 6.00,–,–,–
"Cc1cccc(C)c1-c1cc2nc(n1)NS(=O)(=O)c1cccc(c1)C(=O)N1CCNC[C@@H]1CO2 [Compound 161, (8R)-13-(2,6-Dimethylphenyl)-10-oxa-17λ^6-thia-3,6,14,16,23-pentaazatetracyclo[16.3.1.111,15.03,8]tricosa-1(21),11,13,15(23),18(22),19-hexaene-2,17,17-trione]",–,–,–,4.52 to 5.52,++ (++ is 30-60%)
"Cc1cccc(C)c1-c1cc2nc(n1)NS(=O)(=O)c1cccc(c1)C(=O)N1CCN(C)C[C@@H]1CO2 [Compound 162, (8R)-13-(2,6-Dimethylphenyl)-6-methyl-10-oxa-17λ^6-thia-3,6,14,16,23-pentaazatetracyclo[16.3.1.111,15.03,8]tricosa-1(21),11,13,15(23),18(22),19-hexaene-2,17,17-trione]",–,–,–,4.52 to 5.52,++ (++ is 30-60%)
"Cc1cccc(C)c1-c1cc2nc(n1)NS(=O)(=O)c1cccc(c1)C(=O)N1CCN(CCC3(C(F)(F)F)CC3)C[C@@H]1CO2 [Compound 163, (8R)-13-(2,6-Dimethylphenyl)-6-{2-[1-(trifluoromethyl)cyclopropyl]ethyl}-10-oxa-17λ^6-thia-3,6,14,16,23-pentaazatetracyclo[16.3.1.111,15.03,8]tricosa-1(22),11(23),12,14,18,20-hexaene-2,17,17-trione]",–,–,–,> 6.00,+++ (+++ is >60%)
"Cc1cccc(C)c1-c1cc2nc(n1)NS(=O)(=O)c1cccc(c1)C(=O)N1CCN(Cc3ccccc3)C[C@@H]1CO2 [Compound 164, (8R)-6-Benzyl-13-(2,6-dimethylphenyl)-10-oxa-17λ^6-thia-3,6,14,16,23-pentaazatetracyclo[16.3.1.111,15.03,8]tricosa-1(21),11,13,15(23),18(22),19-hexaene-2,17,17-trione]",–,–,–,> 6.00,+++ (+++ is >60%)
"Cc1cccc(C)c1-c1cc2nc(n1)NS(=O)(=O)c1cccc(c1)C(=O)N1CCN(C(C)C)C[C@@H]1CO2 [Compound 165, (8R)-13-(2,6-Dimethylphenyl)-6-(propan-2-yl)-10-oxa-17λ^6-thia-3,6,14,16,23-pentaazatetracyclo[16.3.1.111,15.03,8]tricosa-1(21),11,13,15(23),18(22),19-hexaene-2,17,17-trione]",–,–,–,4.52 to 5.52,+++ (+++ is >60%)
"Cc1cccc(C)c1-c1cc2nc(n1)NS(=O)(=O)c1cccc(c1)C(=O)N1CCN(C(=O)NC3CCCCCC3)C[C@@H]1CO2 [Compound 166, (8R)—N-Cycloheptyl-13-(2,6-dimethylphenyl)-2,17,17-trioxo-10-oxa-17λ^6-thia-3,6,14,16,23-pentaazatetracyclo[16.3.1.111,15.03,8]tricosa-1(21),11,13,15(23),18(22),19-hexaene-6-carboxamide]",–,–,–,4.52 to 5.52,+++ (+++ is >60%)
"Cc1cccc(C)c1-c1cc2nc(n1)NS(=O)(=O)c1cccc(c1)C(=O)N1CCN(C(=O)N(C(C)C)C(C)C)C[C@@H]1CO2 [Compound 167, (8R)-13-(2,6-Dimethylphenyl)-2,17,17-trioxo-N,N-bis(propan-2-yl)-10-oxa-17λ^6-thia-3,6,14,16,23-pentaazatetracyclo[16.3.1.111,15.03,8]tricosa-1(21),11,13,15(23),18(22),19-hexaene-6-carboxamide]",–,–,–,5.52 to 6.00,+++ (+++ is >60%)
"Cc1cccc(C)c1-c1cc2nc(n1)NS(=O)(=O)c1cccc(c1)C(=O)N1CCN(C(=O)C3CCCCC3)C[C@@H]1CO2 [Compound 168, (8R)-6-Cyclohexanecarbonyl-13-(2,6-dimethylphenyl)-10-oxa-17λ^6-thia-3,6,14,16,23-pentaazatetracyclo[16.3.1.111,15.03,8]tricosa-1(21),11,13,15(23),18(22),19-hexaene-2,17,17-trione]",–,–,–,> 6.00,+++ (+++ is >60%)
"Cc1cccc(C)c1-c1cc2nc(n1)NS(=O)(=O)c1cccc(c1)C(=O)N1CCN(Cc3ccccc3)CC1CO2 (stereo not shown) [Compound 169, 6-Benzyl-13-(2,6-dimethylphenyl)-10-oxa-17λ^6-thia-3,6,14,16,23-pentaazatetracyclo[16.3.1.111,15.03,8]tricosa-1(21),11,13,15(23),18(22),19-hexaene-2,17,17-trione]",–,–,–,> 6.00,+++ (+++ is >60%)
"Cc1cccc(C)c1-c1cc2nc(n1)NS(=O)(=O)c1cccc(c1)C(=O)N1CCNCC1C(C)O2 (stereo not shown) [Compound 172, 13-(2,6-dimethylphenyl)-9-methyl-10-oxa-17λ^6-thia-3,6,14,16,23-pentaazatetracyclo[16.3.1.111,15.03,8]tricosa-1(22),11,13,15(23),18,20-hexaene-2,17,17-trione]",–,–,–,–,+ (+ is <300%)

# Further lines, with some results ahead:
Ent. A Max Activity (%) (Enteroid Assay A),pEC50 (Enteroid Assay A),Compound,Ent. A Max Activity (%),pEC50 [1],Ent. A Max Activity (%) [2]
+++ (+++ is >600%),> 6.00,Cc1cccc(C)c1-c1cc2nc(n1)NS(=O)(=O)c1cccc(c1)C(=O)N1C[C@@H](CN(C)C[C@@H]1C(C)C)O2 [Compound 149],–,–,–
++ (++ is 30-60%),> 6.00,Cc1cccc(C)c1-c1cc2nc(n1)NS(=O)(=O)c1cccc(c1)C(=O)N1C[C@@H](CN(C3CC4(CCCCC4)C3)C[C@@H]1CC(C)C)O2 [Compound 150],–,–,–
++ (++ is 30-60%),> 6.00,Cc1cccc(C)c1-c1cc2nc(n1)NS(=O)(=O)c1cccc(c1)C(=O)N1C[C@@H](CN(CC(C)(C)C)C[C@@H]1CC(C)C)O2 [Compound 151],–,–,–
++ (++ is 30-60%),> 6.00,Cc1cccc(C)c1-c1cc2nc(n1)NS(=O)(=O)c1cccc(c1)C(=O)N1C[C@@H](CN(C3CCC(F)(F)CC3)C[C@@H]1CC(C)C)O2 [Compound 152],–,–,–
++ (++ is 30-60%),> 6.00,Cc1cccc(C)c1-c1cc2nc(n1)NS(=O)(=O)c1cccc(c1)C(=O)N1C[C@@H](CN(CCC(C)(C)C)C[C@@H]1CC(C)C)O2 [Compound 153],–,–,–
+++ (+++ is >600%),> 6.00,Cc1cccc(C)c1-c1cc2nc(n1)NS(=O)(=O)c1cccc(c1)C(=O)N1C[C@@H](CN(CCC(C)(C)C)[C@@H](CC(C)C)C1)O2 [Compound 155],–,–,–
+++ (+++ is >600%),> 6.00,Cc1cccc(C)c1-c1cc2nc(n1)NS(=O)(=O)c1cccc(c1)C(=O)N1C[C@@H](CN(C3CC4(CCCC4)C3)[C@@H](CC(C)C)C1)O2 [Compound 156],–,–,–
